Measured values reported in ChEMBL document CHEMBL5634117 (Eur J Med Chem, 2023).
Active and inactive are the calls of the source. No cut-off for these calls is given here.

Columns and labels:
[1] = target: T1, Mitogen-activated protein kinase 8 (Homo sapiens, UniProt P45983); test: Inhibition of human JNK1 at 10 uM in presence of ATP relative to control
[2] = target: T2, Mitogen-activated protein kinase 9 (Homo sapiens, UniProt P45984); test: Inhibition of human JNK2 at 10 uM in presence of ATP relative to control
Target sequence in this assay (P45984 whole entry, looked up): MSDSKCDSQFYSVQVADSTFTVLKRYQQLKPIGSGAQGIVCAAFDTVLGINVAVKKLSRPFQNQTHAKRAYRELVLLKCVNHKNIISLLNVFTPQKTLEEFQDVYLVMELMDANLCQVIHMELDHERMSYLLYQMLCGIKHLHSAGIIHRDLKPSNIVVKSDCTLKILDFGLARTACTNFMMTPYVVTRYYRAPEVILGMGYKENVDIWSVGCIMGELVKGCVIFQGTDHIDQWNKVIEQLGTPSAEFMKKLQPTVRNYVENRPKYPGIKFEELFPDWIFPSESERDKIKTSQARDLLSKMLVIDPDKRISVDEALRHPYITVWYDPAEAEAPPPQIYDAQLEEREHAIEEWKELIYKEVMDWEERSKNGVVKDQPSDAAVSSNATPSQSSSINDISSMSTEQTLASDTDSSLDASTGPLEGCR

[3] = target: T2, Mitogen-activated protein kinase 9; test: Inhibition of human JNK2 in presence of ATP
Target sequence in this assay (P45984 whole entry): as the sequence (P45984 whole entry, looked up) above

[4] = target: T3, Mitogen-activated protein kinase 10 (Homo sapiens, UniProt P53779); test: Inhibition of human JNK3 at 10 uM in presence of ATP relative to control
[5] = target: T3, Mitogen-activated protein kinase 10; test: Inhibition of human JNK3 in presence of ATP
[6] = target: T1, Mitogen-activated protein kinase 8; test: Inhibition of human JNK1 in presence of ATP
[7] = system: K562; test: Induction of apoptosis in human K562 cells assessed as early apoptotic cells at 1.25 uM incubated for 24 hrs by annexinV and propidium iodide staining based flow cytometry analysis (reference value: 1.17%); type: functional
[8] = system: K562; test: Induction of cell cycle arrest in human K562 cells assessed as accumulation of cells at SubG1 phase at 1.25 uM measured after 24 hrs by PI staining based flow cytometry analysis (reference value: 2.21%); type: functional
[9] = system: K562; test: Induction of cell cycle arrest in human K562 cells assessed as accumulation of cells at G2/M phase at 5 uM measured after 24 hrs by PI staining based flow cytometry analysis (reference value: 25.62%); type: functional
[10] = system: K562; test: Induction of cell cycle arrest in human K562 cells assessed as accumulation of cells at G2/M phase at 2.5 uM measured after 24 hrs by PI staining based flow cytometry analysis (reference value: 25.62%); type: functional
[11] = system: K562; test: Induction of apoptosis in human K562 cells assessed as early apoptotic cells at 2.5 uM incubated for 24 hrs by annexinV and propidium iodide staining based flow cytometry analysis (reference value: 1.17%); type: functional
[12] = system: K562; test: Induction of apoptosis in human K562 cells assessed as early apoptotic cells at 5 uM incubated for 24 hrs by annexinV and propidium iodide staining based flow cytometry analysis (reference value: 1.17%); type: functional
[13] = system: K562; test: Induction of cell cycle arrest in human K562 cells assessed as accumulation of cells at SubG1 phase at 2.5 uM measured after 24 hrs by PI staining based flow cytometry analysis (reference value: 2.21%); type: functional
[14] = system: K562; test: Induction of cell cycle arrest in human K562 cells assessed as accumulation of cells at S phase at 5 uM measured after 24 hrs by PI staining based flow cytometry analysis (reference value: 24.75%); type: functional
[15] = system: K562; test: Induction of apoptosis in human K562 cells assessed as late apoptotic cells at 5 uM incubated for 24 hrs by annexinV and propidium iodide staining based flow cytometry analysis (reference value: 0.82%); type: functional
[16] = system: K562; test: Induction of cell cycle arrest in human K562 cells assessed as accumulation of cells at SubG1 phase at 5 uM measured after 24 hrs by PI staining based flow cytometry analysis (reference value: 2.21%); type: functional
[17] = target: T1, Mitogen-activated protein kinase 8; test: Inhibition of JNK1 (unknown origin) expressed in HEK293 cells assessed as target engagement incubated for 1 hr by NanoBRET assay; type: cell-based
[18] = system: K562; test: Induction of cell cycle arrest in human K562 cells assessed as accumulation of cells at G0/G1 phase at 2.5 uM measured after 24 hrs by PI staining based flow cytometry analysis (reference value: 46.72%); type: functional
[19] = target: Cytochrome P450 2D6 (Homo sapiens, UniProt P10635); test: Inhibition of CYP2D6 (unknown origin) using vivid EOMCC as substrate; type: ADME
[20] = system: K562; test: Induction of apoptosis in human K562 cells assessed as late apoptotic cells at 1.25 uM incubated for 24 hrs by annexinV and propidium iodide staining based flow cytometry analysis (reference value: 0.82%); type: functional
[21] = system: K562; test: Induction of cell cycle arrest in human K562 cells assessed as accumulation of cells at S phase at 1.25 uM measured after 24 hrs by PI staining based flow cytometry analysis (reference value: 24.75%); type: functional
[22] = target: Voltage-gated inwardly rectifying potassium channel KCNH2 (Homo sapiens, UniProt Q12809); test: Inhibition of human ERG; type: toxicity
[23] = system: K562; test: Induction of autophagy in human K562 cells assessed as increase in beclin-1 level at 2.5 to 5 uM measured after 24 hrs by Western blotting analysis; type: functional, cell-based; conditions: dose 2.5-5 µM
[24] = system: K562; test: Induction of cell cycle arrest in human K562 cells assessed as accumulation of cells at G2/M phase at 1.25 uM measured after 24 hrs by PI staining based flow cytometry analysis (reference value: 25.62%); type: functional
[25] = system: K562; test: Induction of apoptosis in human K562 cells assessed as late apoptotic cells at 2.5 uM incubated for 24 hrs by annexinV and propidium iodide staining based flow cytometry analysis (reference value: 0.82%); type: functional
[26] = system: K562; test: Induction of cell cycle arrest in human K562 cells assessed as accumulation of cells at S phase at 2.5 uM measured after 24 hrs by PI staining based flow cytometry analysis (reference value: 24.75%); type: functional
[27] = system: K562; test: Induction of cell cycle arrest in human K562 cells assessed as accumulation of cells at G0/G1 phase at 1.25 uM measured after 24 hrs by PI staining based flow cytometry analysis (reference value: 46.72%); type: functional
[28] = system: K562; test: Induction of cell cycle arrest in human K562 cells assessed as accumulation of cells at G0/G1 phase at 5 uM measured after 24 hrs by PI staining based flow cytometry analysis (reference value: 46.72%); type: functional
[29] = target: Cytochrome P450 3A4 (Homo sapiens, UniProt P08684); test: Inhibition of CYP3A4 (unknown origin) using vivid BOMCC as substrate; type: ADME
Chain of Cytochrome P450 3A4 (P08684 whole entry): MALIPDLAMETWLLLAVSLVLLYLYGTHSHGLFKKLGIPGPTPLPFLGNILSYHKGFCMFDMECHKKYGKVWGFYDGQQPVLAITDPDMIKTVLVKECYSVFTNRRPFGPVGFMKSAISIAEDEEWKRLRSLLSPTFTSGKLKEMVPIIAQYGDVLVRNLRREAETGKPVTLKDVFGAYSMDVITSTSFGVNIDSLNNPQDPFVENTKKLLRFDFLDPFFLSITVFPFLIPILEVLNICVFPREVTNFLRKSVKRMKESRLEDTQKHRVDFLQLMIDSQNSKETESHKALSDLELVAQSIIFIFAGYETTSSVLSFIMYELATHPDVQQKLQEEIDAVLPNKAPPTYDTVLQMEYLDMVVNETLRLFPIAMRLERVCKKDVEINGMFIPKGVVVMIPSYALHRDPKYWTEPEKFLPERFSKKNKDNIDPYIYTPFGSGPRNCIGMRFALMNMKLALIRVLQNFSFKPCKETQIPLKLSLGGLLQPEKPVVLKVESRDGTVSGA

T3 sequence (P53779 whole entry): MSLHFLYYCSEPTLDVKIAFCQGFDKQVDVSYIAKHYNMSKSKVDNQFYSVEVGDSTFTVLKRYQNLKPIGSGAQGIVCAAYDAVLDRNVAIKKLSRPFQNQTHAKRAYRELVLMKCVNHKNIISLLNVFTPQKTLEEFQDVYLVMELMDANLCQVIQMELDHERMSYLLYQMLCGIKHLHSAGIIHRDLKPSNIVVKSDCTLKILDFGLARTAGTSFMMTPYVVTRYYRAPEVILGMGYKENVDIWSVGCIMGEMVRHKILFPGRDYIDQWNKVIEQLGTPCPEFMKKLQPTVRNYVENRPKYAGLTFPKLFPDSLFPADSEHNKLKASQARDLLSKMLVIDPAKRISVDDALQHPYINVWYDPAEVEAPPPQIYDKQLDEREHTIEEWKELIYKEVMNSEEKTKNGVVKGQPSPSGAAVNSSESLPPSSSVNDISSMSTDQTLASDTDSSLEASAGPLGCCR
T1 sequence (P45983 whole entry): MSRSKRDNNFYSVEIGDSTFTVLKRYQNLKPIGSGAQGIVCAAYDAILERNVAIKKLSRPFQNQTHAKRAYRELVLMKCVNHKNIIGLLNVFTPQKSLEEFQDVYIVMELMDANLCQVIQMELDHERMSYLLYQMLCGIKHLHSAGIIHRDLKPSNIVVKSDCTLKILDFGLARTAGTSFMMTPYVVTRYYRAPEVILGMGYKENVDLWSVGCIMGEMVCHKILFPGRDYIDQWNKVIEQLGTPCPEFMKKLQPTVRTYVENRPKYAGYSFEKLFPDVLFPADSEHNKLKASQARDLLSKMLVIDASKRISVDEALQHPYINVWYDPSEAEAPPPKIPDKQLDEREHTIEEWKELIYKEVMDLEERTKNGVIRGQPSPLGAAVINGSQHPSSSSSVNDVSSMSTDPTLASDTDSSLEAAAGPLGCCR
Chain of Voltage-gated inwardly rectifying potassium channel KCNH2 (Q12809 whole entry): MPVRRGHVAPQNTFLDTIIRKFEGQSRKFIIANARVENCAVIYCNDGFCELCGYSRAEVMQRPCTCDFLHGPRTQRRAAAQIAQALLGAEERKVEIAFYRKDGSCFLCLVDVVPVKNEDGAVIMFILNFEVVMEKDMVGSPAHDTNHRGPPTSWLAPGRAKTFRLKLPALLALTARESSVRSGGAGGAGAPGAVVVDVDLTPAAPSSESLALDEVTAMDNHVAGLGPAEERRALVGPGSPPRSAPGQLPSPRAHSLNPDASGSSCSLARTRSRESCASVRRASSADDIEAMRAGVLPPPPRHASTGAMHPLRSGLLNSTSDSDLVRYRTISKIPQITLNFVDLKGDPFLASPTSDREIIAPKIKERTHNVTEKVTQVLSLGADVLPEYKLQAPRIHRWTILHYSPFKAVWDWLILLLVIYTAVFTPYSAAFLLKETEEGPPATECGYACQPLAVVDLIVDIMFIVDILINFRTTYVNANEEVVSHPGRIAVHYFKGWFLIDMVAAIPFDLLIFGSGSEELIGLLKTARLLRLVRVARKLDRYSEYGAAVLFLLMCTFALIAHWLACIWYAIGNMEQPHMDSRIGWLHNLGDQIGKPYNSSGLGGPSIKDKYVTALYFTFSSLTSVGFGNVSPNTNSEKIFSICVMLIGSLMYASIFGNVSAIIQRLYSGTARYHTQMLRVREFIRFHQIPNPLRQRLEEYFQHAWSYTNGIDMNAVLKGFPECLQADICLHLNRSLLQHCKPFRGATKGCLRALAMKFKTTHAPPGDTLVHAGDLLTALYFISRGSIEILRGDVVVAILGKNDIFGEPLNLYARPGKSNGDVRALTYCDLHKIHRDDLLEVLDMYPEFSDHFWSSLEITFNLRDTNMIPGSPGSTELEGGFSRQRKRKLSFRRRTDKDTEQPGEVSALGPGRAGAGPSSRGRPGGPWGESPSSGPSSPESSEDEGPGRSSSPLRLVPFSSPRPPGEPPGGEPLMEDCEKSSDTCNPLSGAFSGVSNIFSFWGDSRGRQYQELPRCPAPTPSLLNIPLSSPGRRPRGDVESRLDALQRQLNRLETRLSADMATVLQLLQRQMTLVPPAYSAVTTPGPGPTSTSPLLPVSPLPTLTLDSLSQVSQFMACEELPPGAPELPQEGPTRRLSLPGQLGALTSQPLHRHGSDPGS
Chain of Cytochrome P450 2D6 (P10635 whole entry): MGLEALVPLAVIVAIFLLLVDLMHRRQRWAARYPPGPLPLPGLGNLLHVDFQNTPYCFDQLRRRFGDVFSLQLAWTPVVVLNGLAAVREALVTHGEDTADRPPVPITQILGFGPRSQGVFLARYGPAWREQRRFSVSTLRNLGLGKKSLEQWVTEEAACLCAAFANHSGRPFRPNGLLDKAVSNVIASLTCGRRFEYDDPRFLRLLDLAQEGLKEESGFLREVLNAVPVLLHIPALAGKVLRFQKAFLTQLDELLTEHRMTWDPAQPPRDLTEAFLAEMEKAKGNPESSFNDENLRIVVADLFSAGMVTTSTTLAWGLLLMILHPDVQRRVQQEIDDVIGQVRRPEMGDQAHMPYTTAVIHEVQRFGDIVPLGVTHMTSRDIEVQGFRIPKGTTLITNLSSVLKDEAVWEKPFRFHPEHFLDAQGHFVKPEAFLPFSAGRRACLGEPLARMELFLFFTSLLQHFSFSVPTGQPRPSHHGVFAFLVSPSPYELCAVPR

COc1cccc(-c2nn(C(C)(C)C)cc2-c2ccnc(NCCCNS(=O)(=O)c3ccc(F)cc3)c2)c1
inhibition [1]: 41.4%

CC(C)(C)n1cc(-c2ccnc(NCCNS(=O)(=O)c3ccc(Br)cc3)c2)c(-c2cccc(O)c2)n1
inhibition [1]: 74%

COc1cccc(-c2nn(C(C)(C)C)cc2-c2ccnc(NCCCNS(=O)(=O)c3ccc(Br)cc3)c2)c1
inhibition [2]: 57.7% | inhibition [1]: 73.7%

COc1cccc(-c2nn(C(C)(C)C)cc2-c2ccnc(NCCCNS(=O)(=O)c3ccc(C)cc3)c2)c1
inhibition [1]: 37.8%

COc1cccc(-c2nn(C(C)(C)C)cc2-c2ccnc(NCCCNS(=O)(=O)c3cccc4ccccc34)c2)c1
inhibition [1]: 21.3%

CC(C)(C)n1cc(-c2ccnc(NCCNS(=O)(=O)c3ccc(Cl)cc3)c2)c(-c2cccc(O)c2)n1
inhibition [1]: 78.7%

COc1cccc(-c2nn(C(C)(C)C)cc2-c2ccnc(NCCNS(=O)(=O)c3ccc(C)cc3)c2)c1
inhibition [1]: 4.68%

COc1cccc(-c2nn(C(C)(C)C)cc2-c2ccnc(NCCNS(=O)(=O)c3ccc(Cl)cc3)c2)c1
inhibition [1]: 0.99%

CC(C)(C)n1cc(-c2ccnc(NCCNS(=O)(=O)c3cccc(F)c3)c2)c(-c2cccc(O)c2)n1
inhibition [1]: 86.4%

COc1cccc(-c2nn(C(C)(C)C)cc2-c2ccnc(NCCCNS(=O)(=O)c3ccccc3)c2)c1
inhibition [1]: 38.8%

COc1ccc(S(=O)(=O)NCCNc2cc(-c3cn(C(C)(C)C)nc3-c3cccc(OC)c3)ccn2)cc1
inhibition [1]: 9.82%

COc1ccc(S(=O)(=O)NCCCNc2cc(-c3cn(C(C)(C)C)nc3-c3cccc(OC)c3)ccn2)cc1
inhibition [1]: 49.2%

CC(C)(C)n1cc(-c2ccnc(NCCNS(=O)(=O)c3ccc(C(F)(F)F)cc3)c2)c(-c2cccc(O)c2)n1
inhibition [1]: 66.6%

CC(C)(C)n1cc(-c2ccnc(NCCCNS(=O)(=O)c3ccccc3)c2)c(-c2cccc(O)c2)n1
inhibition [2]: 98.5% | IC50 [3]: 23.1 nM | inhibition [4]: 99.1% | inhibition [1]: 99.4% | IC50 [5]: 20.2 nM | IC50 [6]: 3.75 nM

CC(C)(C)n1cc(-c2ccnc(NCCCNS(=O)(=O)c3cccc(F)c3)c2)c(-c2cccc(O)c2)n1
inhibition [2]: 98.5% | inhibition [4]: 98.2% | inhibition [1]: 98.4% | IC50 [6]: 6.81 nM

Cc1ccc(S(=O)(=O)NCCNc2cc(-c3cn(C(C)(C)C)nc3-c3cccc(O)c3)ccn2)cc1
inhibition [1]: 85.8%

COc1cccc(-c2nn(C(C)(C)C)cc2-c2ccnc(NCCNS(=O)(=O)c3ccc(F)cc3)c2)c1
inhibition [1]: 3.91%

COc1ccc(S(=O)(=O)NCCCNc2cc(-c3cn(C(C)(C)C)nc3-c3cccc(O)c3)ccn2)cc1
Activity [7]: 1.89% | Activity [8]: 1.34% | Activity [9]: 98.97% | inhibition [2]: 98.5% | Activity [10]: 62.99% | Activity [11]: 1.94% | IC50 [3]: 12.7 nM | Activity [12]: 2.14% | Activity [13]: 0.34% | Activity [14]: 0.34% | Activity [15]: 0.59% | Activity [16]: 0.09% | IC50 [17]: 2810 nM | inhibition [4]: 98% | Activity [18]: 6.24% | IC50 [19]: 26.7 nM | Activity [20]: 0.52% | Activity [21]: 32.54% | inhibition [1]: 99.6% | IC50 [22]: 4820 nM | Activity [23]: Active | Activity [24]: 45.33% | Activity [25]: 0.73% | Activity [26]: 29.83% | IC50 [5]: 10.5 nM | IC50 [6]: 1.81 nM | Activity [27]: 19.83% | Activity [28]: 0.17% | IC50 [29]: 383 nM

COc1cccc(-c2nn(C(C)(C)C)cc2-c2ccnc(NCCNS(=O)(=O)c3ccc(Br)cc3)c2)c1
inhibition [1]: -6.18%

COc1ccc(S(=O)(=O)NCCNc2cc(-c3cn(C(C)(C)C)nc3-c3cccc(O)c3)ccn2)cc1
inhibition [2]: 94.4% | inhibition [4]: 96.2% | inhibition [1]: 90.6% | IC50 [6]: 55.8 nM

COc1cccc(-c2nn(C(C)(C)C)cc2-c2ccnc(NCCCNS(=O)(=O)c3cccc(F)c3)c2)c1
inhibition [1]: 29.9%

CC(C)(C)n1cc(-c2ccnc(NCCNS(=O)(=O)c3ccc(F)cc3)c2)c(-c2cccc(O)c2)n1
inhibition [1]: 87.2%

CC(C)(C)n1cc(-c2ccnc(NCCCNS(=O)(=O)c3ccc(F)cc3)c2)c(-c2cccc(O)c2)n1
inhibition [2]: 98.9% | IC50 [3]: 19.8 nM | inhibition [4]: 98.5% | inhibition [1]: 96.8% | IC50 [5]: 10.1 nM | IC50 [6]: 3.5 nM

COc1cccc(-c2nn(C(C)(C)C)cc2-c2ccnc(NCCCNS(=O)(=O)c3ccc(Cl)cc3)c2)c1
inhibition [2]: 68.2% | inhibition [1]: 79.6%

CCNC1CCNC1 (centres undefined)
IC50 [22]: 12.8 nM

COc1cccc(-c2nn(C(C)(C)C)cc2-c2ccnc(NCCCNS(=O)(=O)c3ccc(C(F)(F)F)cc3)c2)c1
inhibition [1]: 13.2%

COc1cccc(-c2nn(C(C)(C)C)cc2-c2ccnc(NCCNS(=O)(=O)c3ccccc3)c2)c1
inhibition [1]: 3.74%

Cc1ccc(S(=O)(=O)NCCCNc2cc(-c3cn(C(C)(C)C)nc3-c3cccc(O)c3)ccn2)cc1
inhibition [2]: 98.8% | inhibition [4]: 98.2% | inhibition [1]: 97% | IC50 [6]: 15.1 nM

CC(C)(C)n1cc(-c2ccnc(NCCNS(=O)(=O)c3ccccc3)c2)c(-c2cccc(O)c2)n1
inhibition [1]: 81.8%

CC(C)(C)n1cc(-c2ccnc(NCCNS(=O)(=O)c3cccc4ccccc34)c2)c(-c2cccc(O)c2)n1
inhibition [1]: 63.7%
